{"source": "patent US20220000887A1", "about": "“REPURPOSED ANTIBIOTICS FOR NON-NUCLEAR GENOTOXIC CHEMOTHERAPY AND PHARMACEUTICAL COMPOSITION FOR ANTI-CANCER CONTAINING THE SAME” (Korea University Research and Business Foundation, priority 2019, published 2022)", "key": {"[1]": {"system": "MDA-MB-231 metastatic breast cancer cells", "test": "Cell viability analysis (LDH assay), MDA-MB-231", "conditions": "for apoptotic effect on MDA-MB-231 cells: 48 h treatment"}, "[2]": {"system": "DU145 (prostate cancer cells)", "test": "Cell viability analysis (LDH assay), DU145", "type": "cell-based, human", "conditions": "FIG. 3", "protocol": "(§1) Particularly, the inventive anticancer drugs had IC50 values of 23.77 μM and 27.05 μM against A549 and SW620, respectively."}, "[3]": {"system": "SW620 (colon cancer cells)", "test": "Cell viability analysis (LDH assay), SW620", "type": "cell-based, human", "conditions": "FIG. 3", "protocol": "as §1"}, "[4]": {"system": "PC3 (prostate cancer cells)", "test": "Cell viability analysis (LDH assay), PC3", "type": "cell-based, human", "conditions": "FIG. 3", "protocol": "as §1"}, "A549 (lung cancer cells)": {"system": "A549 (lung cancer cells)", "test": "Cell viability analysis (LDH assay), A549", "type": "cell-based, human", "conditions": "FIG. 3", "protocol": "as §1"}, "[5]": {"system": "nuclear DNA and mitochondrial DNA", "test": "Damage to nuclear DNA and mitochondrial DNA (FIG. 8)", "from_the_text": "(§2) RNA was extracted from each sample using TRIzol solution. cDNA synthesized from the isolated RNA or intracellular genomic DNA extracted using a genomic DNA isolation kit was used for real-time polymerase chain reaction (PCR).\n(§3) The real-time PCR data were normalized by the expression of glyceraldehyde-3-phosphate dehydrogenase (GAPDH). Relative expression levels were expressed as fold changes over the control. The results (mean±SE) were obtained in triplicate and a p value <0.05 was taken to be statistically significant."}, "MDA-MB-231 cells [6]": {"system": "MDA-MB-231 cells", "test": "FACS measurement of Annexin-V positive apoptotic cells", "type": "cell-based, human", "conditions": "10 μM, 0, 6, 12, 24 h, Annexin V assay, FIG. 7", "protocol": "Annexin-V positive apoptotic cells were analyzed by flow cytometry. To this end, the MDA-MB-231 cells were treated with 10 μM Ester MT-CFX for different periods of time (0, 6, 12, and 24 h) and cultured for indicated periods of time. Cells were harvested, washed twice with ice-cold PBS, placed in BD FACS tubes (10^6/mL), and cultured with 10 μg/mL annexin V in PBS containing 10% FBS at room temperature for 30 min. Subsequently, cells were washed with ice-cold PBS and annexin V fluorescence was measured in the FL-1 channel using a FACSCalibur flow cytometer (BD, USA)."}, "[7]": {"system": "mitochondrial DNA synthesis", "test": "Mitochondrial DNA synthesis (FIG. 5)", "type": "cell-based", "from_the_text": "as §2, §3"}, "[8]": {"system": "mitochondrial genomic DNA", "test": "Taq1 assay for damage to mitochondrial genomic DNA (FIG. 10)", "type": "cell-based"}, "MDA-MB-231 xenograft": {"system": "MDA-MB-231 xenograft", "test": "In vivo mouse xenograft model", "conditions": "intravenous three times a week, 12 weeks, BALB/c-nu-nu mice", "method": "Five-week-old immunodeficient male BALB/c-nu-nu mice (Orient bio, Korea) weighing between 18-20 g were used. The animals were bred and housed in a facility maintaining a humidity of 30-40% and a temperature of 22±1° C. on a 12-h light/dark cycle. All animal experiments were approved by the Ethics Committee for Animal Studies at Korea University. Animals were treated in accordance with the protocol approved by the Ethics Committee.\nMDA-MB-231 cells (5×10^6 cells) were injected subcutaneously into 6-week-old immunodeficient BALB/c-nu-nu mice weighing between 18-20 g to establish tumor-bearing mouse models. […] The lengths of the long and short axes of tumors were measured weekly. 12 weeks after the first injection of each compound, the mice were sacrificed and tumor samples were collected for further analysis. […] Each asterisk (*) indicates a significant difference to the corresponding control."}, "MDA-MB-231 cells [9]": {"system": "MDA-MB-231 cells", "test": "Mitochondrial membrane potential measurement (JC-1 assay)", "type": "cell-based, human", "conditions": "10 μM, 0, 6, 12, 24 h, FIG. 7", "protocol": "Mitochondrial membrane potential differences were measured. To this end, the MDA-MB-231 cells were treated with 10 μM Ester MT-CFX for different periods of time (0, 6, 12, and 24 h) and cultured for indicated periods of time. Cells were harvested, washed once with ice-cold PBS, and cultured with […] 5,5′,6,6′-tetrachloro-1,1′,3,3′-tetraethyl-benzimidazolyl carbocyanine chloride (JC-1) at 37° C. for 20 min. The JC-1 stained cells were centrifuged at 1,300 g for 3 min and washed twice with ice-cold PBS. Mitochondrial membrane potentials of JC-1 monomer (green channel) and aggregate (red channel) were measured in different wavelength bands."}, "[10]": {"system": "nuclear DNA and mitochondrial DNA", "from_the_text": "as §2, §3"}, "MDA-MB-231 cells [11]": {"system": "MDA-MB-231 cells", "test": "Reactive oxidative species (ROS) measurement (Amplex Red, CM-H2DCFDA)", "type": "cell-based, human", "conditions": "10 μM, 48 h, FIG. 4", "protocol": "The activity of hydrogen peroxide (H2O2) produced in cells was evaluated by detection with Amplex® Red reagent (10-acetyl-3,7-dihydroxyphenoxazine; Thermo Fisher scientific). Here, Amplex® Red reagent reacts with H2O2 in a stoichiometric ratio of 1:1 in the presence of peroxidase in cells to produce resorufin as a red fluorescent product. The fluorescence of resorufin can be analyzed at excitation and emission wavelengths of 571 nm and 581 nm, respectively. The MDA-MB-231 cell line was seeded into a 96-well plate and treated with 10 μM Ester MT-CFX for 48 h. Thereafter, the amount of hydrogen peroxide was measured. A reaction mixture of 50 μM Amplex® Red reagent and 0.1 U/mL HRP was prepared in Krebs-Ringer phosphate buffer (145 mM NaCl, 5.7 mM sodium phosphate, 4.86 mM KCl, 0.54 mM CaCl2, 1.22 mM MgSO4, 5.5 mM glucose, pH 7.35). 100 μL of the reaction mixture was added to each plate well, followed by incubation at 37° C. for 10 min. The brightness of fluorescence was measured at 530-560 nm excitation and 590 nm emission wavelengths using a microplate reader. The MDA-MB-231 cell line was seeded into a confocal dish. […] The fluorescence of reactive oxygen species produced in cells was imaged by confocal laser scanning microscopy at 492-495 nm excitation and 517-527 nm emission wavelengths."}, "[12]": {"system": "nuclear and mitochondrial DNA", "test": "Real-time PCR for nuclear and mitochondrial DNA damage lesions (FIG. 11)", "type": "cell-based", "from_the_text": "as §2, §3"}}, "note": "Several values for one entry are separate records, joined by “and”; a condition that tells them apart may be missing. Identical values can stand only once. Entries after “also recorded” stand apart in the source; their conditions may differ. Like-named read-outs stand apart in the source and are kept apart here."}
{"compound": "O=C(O)c1cn(C2CC2)c2cc(N3CCNCC3)c(F)cc2c1=O", "note": "[ciprofloxacin, reference compound]", "values": [{"measurement": "apoptotic effect on MDA-MB-231 cells", "setting": "[1]; LDH assay", "value": "little or no apoptotic effect"}]}
{"compound": "O=C(NCCCCCC[P+](c1ccccc1)(c1ccccc1)c1ccccc1)c1cn(C2CC2)c2cc(N3CCNCC3)c(F)cc2c1=O.[Cl-]", "note": "[Amide Mt-CFX]", "values": [{"measurement": "apoptotic effects on DU145", "setting": "[2]", "value": "apoptotic effects"}, {"measurement": "apoptotic effects on SW620", "setting": "[3]", "value": "apoptotic effects"}, {"measurement": "apoptotic effects on PC3", "setting": "[4]", "value": "apoptotic effects"}, {"measurement": "apoptotic effects on A549", "setting": "A549 (lung cancer cells)", "value": "apoptotic effects"}, {"measurement": "apoptotic effect on MDA-MB-231 cells", "setting": "[1]; LDH assay", "value": "enhanced apoptotic effect; also recorded: apoptotic effects"}]}
{"compound": "COc1cccc2c1C(=O)c1c(O)c3c(c(O)c1C2=O)C[C@@](O)(C(=O)CO)C[C@@H]3O[C@H]1C[C@H](N)[C@H](O)[C@H](C)O1", "note": "[doxorubicin, reference compound]", "values": [{"measurement": "toxicity to nuclear genes", "setting": "[5]", "value": "strong toxicity to nuclear genes"}]}
{"compound": "Cl.O=C(OCCCCCC[P+](c1ccccc1)(c1ccccc1)c1ccccc1)c1cn(C2CC2)c2cc(N3CCNCC3)c(F)cc2c1=O.[Cl-]", "note": "[Ester Mt-CFX]", "values": [{"measurement": "apoptosis over time", "setting": "MDA-MB-231 cells [6]", "value": "occurrence of apoptosis over time"}, {"measurement": "mitochondrial DNA synthesis", "setting": "[7]", "value": "inhibition of mitochondrial DNA synthesis"}, {"measurement": "apoptotic effects on DU145", "setting": "[2]", "value": "apoptotic effects"}, {"measurement": "apoptotic effects on SW620", "setting": "[3]", "value": "apoptotic effects"}, {"measurement": "toxicity to mitochondrial genes", "setting": "[5]", "value": "selective toxicity to mitochondrial genes"}, {"measurement": "mitochondria targeting (damage to mitochondrial genomic DNA)", "setting": "[8]", "value": "targeted mitochondria"}, {"measurement": "cancer volume compared to control", "setting": "MDA-MB-231 xenograft", "value": "significant reduction in cancer volume"}, {"measurement": "apoptotic effects on PC3", "setting": "[4]", "value": "apoptotic effects"}, {"measurement": "mitochondrial membrane potential differences", "setting": "MDA-MB-231 cells [9]", "value": "reduction of mitochondrial membrane potential differences"}, {"measurement": "toxicity to nuclear genes", "setting": "[10]", "value": "no toxicity to nuclear genes"}, {"measurement": "apoptotic effects on A549", "setting": "A549 (lung cancer cells)", "value": "apoptotic effects"}, {"measurement": "apoptotic effect on MDA-MB-231 cells", "setting": "[1]; LDH assay", "value": "strong apoptotic effect; also recorded: apoptotic effects"}, {"measurement": "IC50", "setting": "[1]; MDA-MB-231, 48 h treatment, LDH assay", "value": "~15 µM and 20 to 30 µM"}, {"measurement": "apoptotic activity against the cancer cells, fold higher than that of ciprofloxacin", "setting": "[1]; MDA-MB-231, ratio of IC50 values", "value": "~55,000 fold"}, {"measurement": "production of reactive oxygen species", "setting": "MDA-MB-231 cells [11]", "value": "reactive oxygen species are produced"}, {"measurement": "mitochondrial mutations (DNA damage lesions)", "setting": "[12]", "value": "induced mitochondrial mutations"}]}
